Test results published in patent US8318976B2, “Salts, aqueous liquid compositions containing salts of S-(+)-abscisic acid and methods of their preparation” (Valent BioSciences Corporation, priority 2007, dated 2012).
Where two headings read alike, the source gives them in different places.

Legend:
[1] = literature reports; cited from earlier work
[2] = tested on: California Blackeye Pea (cowpea); assay: Phytotoxicity and growth after foliar application; type: in vivo; details: for % Leaf Area Damaged 3 days after treatment: monofoliate leaves
Method: Phytotoxicity is defined as damage to a plant caused by treatment with an externally applied chemical substance. Phytotoxicity caused by application of an agricultural chemical is considered highly undesirable (except in the case of herbicides). To test the relative safety of the compositions of the present invention, comprising an ammonium salt of (S)-(+)-abscisic acid, as compared to compositions of the prior art, comprising an ammonium salt of (R,S)-(±)-abscisic acid, plants were treated with solutions containing two different concentrations of the (S)-(+)-abscisic acid or with solutions containing (R,S)-(±)-abscisic acid at concentrations in which either the total concentration of (R,S)-(±)-abscisic acid was equal to the higher concentration of (S)-(+)-abscisic acid or in which the concentration of (S)-(+)-abscisic acid contained in the (R,S)-(±)-abscisic acid was equal to the higher treatment concentration of the pure (S)-(+)-abscisic acid. California Blackeye Pea (cowpea) seed was planted into 18 cell flats filled with Promix PGX in a greenhouse. When the plants had grown to a point where the monofoliate leaves were fully expanded and the first trifoliate leaves were emerging (18 days after planting) the plants were sprayed with 1.5 ml of treatment solution. After treatment the plants were held in the greenhouse and evaluated for damage to the monofoliate leaves and also for growth of the trifoliate leaves. The percentage of the monofoliate leaf area that was damaged was estimated three days after treatment, and monofoliate leaf abscission and trifoliate leaf development were determined on the fifth day after treatment.

[3] = tested on: tomato leaf transpiration; assay: Tomato leaf transpiration rate after foliar spray (LI-1600 porometer); type: in vivo, Tomato (variety: Rutgers); details: for Transpiration rate (% of control), 3-Day Average: average of days 1-3; for Transpiration rate (% of control), Days after treatment 1: day 1; for Transpiration rate (% of control), Days after treatment 2: day 2; for Transpiration rate (% of control), Days after treatment 3: day 3
Method: Preparation of plant specimens for use in the treatment studies of the EXAMPLES that follow was carried out as follows. Tomato (variety: Rutgers) seeds were sown in an 18-cell flat filled with Promix PGX (available from Premier Horticulture Inc., Quakertown Pa.) and grown for 3 weeks to allow for germination and initial growth. Plants were then transplanted into pots (18 cm in diameter and 18 cm in height), filled with Promix BX (available from Premier Horticulture Inc., Quakertown Pa.), and grown for one or two more weeks before treatment, depending on temperature and available light. Plants received daily irrigation and weekly fertilizer (1 g/L all purpose fertilizer 20-20-20, available from The Scotts Company, Marysville, Ohio).
All treatment solutions were made up with distilled water. The (S)-(+)-abscisic acid (95% active ingredient) is available from Lomon BioTechnology Co., Ltd. (Shichuan, China). Twenty L of a 250 ppm solution of (S)-(+)-abscisic acid was prepared and stored in the dark at 20-25° C. This same 250-ppm (S)-(+)-abscisic acid solution was used as a control for all studies to eliminate the possibility of applying an incorrect concentration.
All experiments were conducted using a randomized complete block experimental design. Solutions of (S)-(+)-abscisic acid and blank treatments (plain water) were applied by spray to the aerial parts of the tomato plants at the rate of 20 mL per 6 plants. Plants were then placed in a transparent chamber with humidity controlled within the range of 40 to 60% relative humidity. Leaf transpiration rates were measured at 1, 2 and 3 days after treatment. Measurements were conducted using a LI-1600 Steady State Porometer (LI-Cor, Lincoln, Nebr.). Each day the transpiration rate of the plants of each treatment group was normalized to a percentage of the transpiration rate of untreated plants (plants sprayed with water only) in order to control for day-to-day variability in plant status caused by changes of environmental conditions such as light intensity and temperature. Data of each plant was also averaged over a 3-day period to balance the short term and long term effect of (S)-(+)-abscisic acid on tomato leaf transpiration as well as to reduce experimental variability.

[4] = cited from earlier work; for highest concentration achievable in water: pure water, room / ordinary ambient temperature

SMILES: CC(C=C[C@@]1(O)C(C)=CC(=O)CC1(C)C)=CC(=O)O [(S)-(+)-2-trans-,4-trans-isomer]
- biological activity [1]: biologically inactive

SMILES: CC1=CC(=O)CC(C)(C)C1(O)/C=C/C(C)=C\C(=O)O.N (racemic) [(R,S)-(±)-abscisic acid ammonium salt]
- Average Number of Abscised Monofoliate Leaves 5 days after treatment ([2]; 6250 ppm foliar spray): 1.7
- Average Number of New Trifoliate Leaves 5 days after treatment ([2]; 6250 ppm foliar spray): 0.0
- % Leaf Area Damaged 3 days after treatment ([2]; 6250 ppm foliar spray): 97%
- Average Number of Abscised Monofoliate Leaves 5 days after treatment ([2]; 12500 ppm foliar spray): 2.0
- Average Number of New Trifoliate Leaves 5 days after treatment ([2]; 12500 ppm foliar spray): 0.0
- % Leaf Area Damaged 3 days after treatment ([2]; 12500 ppm foliar spray): 100%
- relative phytotoxicity, (S)-(+)- vs (R,S)-(±)-abscisic acid salt ([2]; equal total dose or equal (S)-(+)-enantiomer dose): more phytotoxicity
- Transpiration rate (% of control), 3-Day Average ([3]; Table 8, 250 ppm spray): 90.95 % of control
- Transpiration rate (% of control), Days after treatment 1 ([3]; Table 8, 250 ppm spray): 90.26 % of control
- Transpiration rate (% of control), Days after treatment 2 ([3]; Table 8, 250 ppm spray): 87.73 % of control
- Transpiration rate (% of control), Days after treatment 3 ([3]; Table 8, 250 ppm spray): 94.86 % of control
- Transpiration rate (% of control), 3-Day Average ([3]; Table 8, 500 ppm spray): 81.03 % of control
- Transpiration rate (% of control), Days after treatment 1 ([3]; Table 8, 500 ppm spray): 77.53 % of control
- Transpiration rate (% of control), Days after treatment 2 ([3]; Table 8, 500 ppm spray): 76.20 % of control
- Transpiration rate (% of control), Days after treatment 3 ([3]; Table 8, 500 ppm spray): 89.36 % of control

SMILES: CC1=CC(=O)CC(C)(C)[C@@]1(O)/C=C/C(C)=C\C(=O)O [(S)-(+)-abscisic acid, 2-cis-, 4-trans-(S)-(+)-abscisic acid]
- solubility in hard water ([4]; hard water, compared with pure water): even less
- solubility in propylene glycol ([4]; propylene glycol): poorly soluble
- highest concentration achievable in water [4]: ≤ 3000 ppm
- highest concentration achievable in water ([4]; listed as abscisic acid): about 3000 ppm
- Transpiration rate (% of control), 3-Day Average ([3]; Table 1, 250 ppm spray): 87.02 % of control
- Transpiration rate (% of control), Days after treatment 1 ([3]; Table 1, 250 ppm spray): 75.59 % of control
- Transpiration rate (% of control), Days after treatment 2 ([3]; Table 1, 250 ppm spray): 89.83 % of control
- Transpiration rate (% of control), Days after treatment 3 ([3]; Table 1, 250 ppm spray): 95.63 % of control
- Transpiration rate (% of control), 3-Day Average ([3]; Table 2, 250 ppm spray): 87.02 % of control
- Transpiration rate (% of control), Days after treatment 1 ([3]; Table 2, 250 ppm spray): 75.59 % of control
- Transpiration rate (% of control), Days after treatment 2 ([3]; Table 2, 250 ppm spray): 89.83 % of control
- Transpiration rate (% of control), Days after treatment 3 ([3]; Table 2, 250 ppm spray): 95.63 % of control
- Transpiration rate (% of control), 3-Day Average ([3]; Table 3, 250 ppm spray): 80.78 % of control
- Transpiration rate (% of control), Days after treatment 1 ([3]; Table 3, 250 ppm spray): 72.66 % of control
- Transpiration rate (% of control), Days after treatment 2 ([3]; Table 3, 250 ppm spray): 76.18 % of control
- Transpiration rate (% of control), Days after treatment 3 ([3]; Table 3, 250 ppm spray): 93.50 % of control
- Transpiration rate (% of control), 3-Day Average ([3]; Table 4, 250 ppm spray): 83.21 % of control
- Transpiration rate (% of control), Days after treatment 1 ([3]; Table 4, 250 ppm spray): 75.30 % of control
- Transpiration rate (% of control), Days after treatment 2 ([3]; Table 4, 250 ppm spray): 83.65 % of control
- Transpiration rate (% of control), Days after treatment 3 ([3]; Table 4, 250 ppm spray): 90.68 % of control
- Transpiration rate (% of control), 3-Day Average ([3]; Table 5, 250 ppm spray): 69.00 % of control
- Transpiration rate (% of control), Days after treatment 1 ([3]; Table 5, 250 ppm spray): 59.35 % of control
- Transpiration rate (% of control), Days after treatment 2 ([3]; Table 5, 250 ppm spray): 71.02 % of control
- Transpiration rate (% of control), Days after treatment 3 ([3]; Table 5, 250 ppm spray): 76.62 % of control
- Transpiration rate (% of control), 3-Day Average ([3]; Table 7, 250 ppm spray): 78.21 % of control
- Transpiration rate (% of control), Days after treatment 1 ([3]; Table 7, 250 ppm spray): 71.16 % of control
- Transpiration rate (% of control), Days after treatment 2 ([3]; Table 7, 250 ppm spray): 75.23 % of control
- Transpiration rate (% of control), Days after treatment 3 ([3]; Table 7, 250 ppm spray): 88.25 % of control
- Transpiration rate (% of control), 3-Day Average ([3]; Table 8, 250 ppm spray): 78.21 % of control
- Transpiration rate (% of control), Days after treatment 1 ([3]; Table 8, 250 ppm spray): 71.16 % of control
- Transpiration rate (% of control), Days after treatment 2 ([3]; Table 8, 250 ppm spray): 75.23 % of control
- Transpiration rate (% of control), Days after treatment 3 ([3]; Table 8, 250 ppm spray): 88.25 % of control

SMILES: CC1=CC(=O)CC(C)(C)[C@]1(O)/C=C/C(C)=C\C(=O)O [(R)-(−)-abscisic acid]
- biological activity [1]: biologically inactive
